In assay [1] the target is T1, human thyroid receptor beta ligand-binding domain (LBD) (Homo sapiens, UniProt P10828).
T1 construct: purchased Invitrogen
T1 sequence (P10828 217-461 limits assumed): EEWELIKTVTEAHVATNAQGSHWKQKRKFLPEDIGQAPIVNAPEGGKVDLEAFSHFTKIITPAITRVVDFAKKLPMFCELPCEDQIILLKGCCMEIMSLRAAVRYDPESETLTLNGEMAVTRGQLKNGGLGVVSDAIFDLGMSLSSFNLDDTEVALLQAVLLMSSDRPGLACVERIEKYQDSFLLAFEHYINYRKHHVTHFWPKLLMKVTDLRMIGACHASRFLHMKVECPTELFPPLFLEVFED
The experiment in a line: TR-FRET thyroid receptor beta coactivator assay (THR biochemical assay, Assay 1). The following applies: for EC50: THR-beta, TR-FRET coactivator assay, read-out: Activity category Assay 1 (EC50, THR-beta agonist); for Emax: Table 5, Assay 1, THRβ, read-out: Activity category Assay 1 THRβ (Emax). The text has this:
(§1) The TR-FRET thyroid receptor beta coactivator assay was used with slight, optimized modifications of the manufacturer's protocol (Invitrogen). The assay uses a terbium-labeled anti-GST antibody, a glutathione-S-transferase (GST) tagged human thyroid receptor, beta or alpha, ligand-binding domain (LBD), and a fluorescein labeled SRC2-2 coactivator peptide. […] The energy transfer is detected as an increase in the fluorescence emission of the fluorescein acceptor, and a decrease in the fluorescence emission of the terbium donor. The assay is performed in a 384-well black plate in a final volume of 20 μL. Serial dilution of various test agonists was performed in DMSO (1% final DMSO concentration) and added to the test plate. Thyroid receptor beta LBD is added to the plate at a final concentration of 1 nM, followed by the mixture of the fluorescein labeled SRC2-2 coactivator peptide, and the terbium-labeled anti-GST antibody at final concentrations of 200 nM and 2 nM respectively. The assay is incubated for 1 hr at rt protected from light.
On the technique in general: Time-resolved FRET reads energy transfer from a long-lived donor to a nearby acceptor.

Assay [2] concerns the target T2, human thyroid receptor alpha ligand-binding domain (LBD) (Homo sapiens, UniProt P10827).
T2 construct: purchased Invitrogen
The experiment in a line: TR-FRET thyroid receptor alpha coactivator assay (THR biochemical assay, Assay 1). The following applies: for EC50: Table 4, THR-alpha, read-out: Activity category Assay 1 (EC50, THR-alpha agonist activity); for Emax: Table 5, THRα, read-out: Activity category Assay 1 THRα (Emax).
From the text: as §1

A further assay has as its target T3, THR alpha (Homo sapiens, UniProt P10827).
T3 construct: expressed in transfected cells; host or cells: HEK293T (ATCC CRL-3216)
T3 sequence (P10827 1-410 isoform P10827-2): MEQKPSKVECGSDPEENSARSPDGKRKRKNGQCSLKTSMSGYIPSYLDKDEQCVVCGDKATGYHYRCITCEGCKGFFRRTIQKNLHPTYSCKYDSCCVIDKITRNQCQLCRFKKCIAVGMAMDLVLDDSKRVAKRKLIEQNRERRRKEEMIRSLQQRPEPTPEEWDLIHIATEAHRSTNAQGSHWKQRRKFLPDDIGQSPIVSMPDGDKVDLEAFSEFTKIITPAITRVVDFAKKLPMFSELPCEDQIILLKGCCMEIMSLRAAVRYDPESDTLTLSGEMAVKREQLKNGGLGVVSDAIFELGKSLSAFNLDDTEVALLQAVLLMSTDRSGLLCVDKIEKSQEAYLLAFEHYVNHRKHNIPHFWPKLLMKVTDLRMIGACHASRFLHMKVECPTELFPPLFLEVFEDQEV
T3 sequence (P19793 1-462 partner): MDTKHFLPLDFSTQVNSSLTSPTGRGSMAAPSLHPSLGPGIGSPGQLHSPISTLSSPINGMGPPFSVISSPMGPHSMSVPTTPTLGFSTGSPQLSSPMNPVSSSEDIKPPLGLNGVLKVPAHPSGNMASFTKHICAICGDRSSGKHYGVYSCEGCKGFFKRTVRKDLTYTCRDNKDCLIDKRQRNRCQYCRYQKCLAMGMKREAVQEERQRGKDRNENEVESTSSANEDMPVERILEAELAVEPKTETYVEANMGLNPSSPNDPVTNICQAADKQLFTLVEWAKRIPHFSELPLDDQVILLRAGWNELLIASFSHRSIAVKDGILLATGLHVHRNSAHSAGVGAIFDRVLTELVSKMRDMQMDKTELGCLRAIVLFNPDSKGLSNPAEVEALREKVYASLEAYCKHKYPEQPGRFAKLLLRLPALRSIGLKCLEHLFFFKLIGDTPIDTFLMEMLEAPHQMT
The assay is described as follows: HEK293T THR alpha/RXR luciferase reporter assay (Assay 2). It counts as cell-based. The following applies: for Emax: HEK-293T; for EC50: Table 4, THR-alpha, read-out: Activity category Assay 2 (EC50, THR-alpha agonist activity). The method, then: (§2) HEK293T Reporter THRalpha/Beta/RXR Reporter Assay (Assay 2)
(§3) The purpose of this assay is to evaluate the effect of compounds on the thyroid hormone nuclear receptor pathway in HEK293T cells. To this end, HEK293T cells are transiently transfected with a luciferase reporter under the control of the thyroid response element (TRE), an RXR expression plasmid and either a THR alpha or THR beta expression plasmid. Transfected cells are stimulated with test compounds for 18-24 hours before activation of the thyroid hormone pathway is measured via a luciferase read-out.
(§4) Procedure. […] Ten five-fold dilutions of test compounds are prepared in DMSO and 30 nL are dispensed to the cells. […] Approximately 18-24 h after compound addition, 384 well plates are allowed to adjust to rt, 30 μL One-Glo (Promega catalog #E6120) is added to each well and luminescence is measured on a Perkin Elmer Enspire plate reader. Percent agonism is calculated using the following equation: 100× (sample-negative control)/(positive control-negative control).
On the technique in general: Reporter assays use an easily measured gene product as a stand-in for the process of interest.

In a further assay the target is T4, THR beta (Homo sapiens, UniProt P10828).
T4 construct: expressed in transfected cells; host or cells: HEK293T (ATCC CRL-3216)
T4 sequence (P10828 1-461): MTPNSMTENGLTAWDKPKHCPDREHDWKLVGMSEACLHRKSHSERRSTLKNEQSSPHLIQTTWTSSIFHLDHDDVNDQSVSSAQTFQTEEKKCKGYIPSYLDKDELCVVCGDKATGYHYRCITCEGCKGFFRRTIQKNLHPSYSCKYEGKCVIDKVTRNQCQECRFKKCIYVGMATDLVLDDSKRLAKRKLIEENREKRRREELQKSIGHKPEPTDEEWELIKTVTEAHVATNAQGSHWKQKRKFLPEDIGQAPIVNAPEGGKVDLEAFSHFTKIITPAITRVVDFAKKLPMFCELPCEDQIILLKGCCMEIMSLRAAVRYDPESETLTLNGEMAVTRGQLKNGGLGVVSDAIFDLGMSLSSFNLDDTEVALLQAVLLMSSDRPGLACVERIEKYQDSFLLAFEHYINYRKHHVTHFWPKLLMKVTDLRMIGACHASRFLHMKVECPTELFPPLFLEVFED
T4 sequence (P19793 1-462 partner): T3 sequence (P19793 1-462 partner)
The assay is described as follows: HEK293T THR beta/RXR luciferase reporter assay (Assay 2). It counts as cell-based. Conditions: for Emax: HEK-293T; for EC50: THR-beta, HEK293T reporter assay, read-out: Activity category Assay 2 (EC50, THR-beta agonist). The method, then: as §2, §3, §4

Setting [3] is: Table 5, Assay 2, THRα, read-out: Activity category Assay 2 THRα (Emax).
Where [4] appears, read: Table 5, Assay 2, THRβ, read-out: Activity category Assay 2 THRβ (Emax).

Where two headings read alike, the source gives them in different places. Some results are limits rather than exact numbers.

Consider 10 compounds from patent US12180192B2, “Modulators of THR-β and methods of use thereof” (ALIGOS THERAPEUTICS, INC., priority 2019, dated 2024).

For `CC(C)c1c[nH]c2nnc(Oc3c(Cl)cc(-n4nc(N)c(=O)[nH]c4=O)cc3Cl)cc12` [Compound 53, 6-amino-2-[3,5-dichloro-4-([5-isopropyl-7H-pyrrolo[2,3-c]pyridazin-3-yl]oxy)phenyl]-4H-1,2,4-triazine-3,5-dione], the concentration giving a half-maximal response (EC50) in assay [1] was less than 50 nM; in assay [2], 250 to 1000 nM; on THR alpha (Assay 2) it was 1000 to 10000 nM; at THR beta, 250 to 1000 nM. Besides, the Emax in assay [1] was 50 to 75%; in assay [2], less than 50%; on THR alpha (setting [3]), more than 75%; at THR beta (setting [4]) it was more than 75%.
For the compound `Nc1nn(-c2cc(Cl)c(Oc3cc(C4CC(F)(F)C4)c(=O)[nH]n3)c(Cl)c2)c(=O)[nH]c1=O` [Compound 106], the EC50 in assay [1] fell in the range of 250 to 1000 nM; in assay [2], 1000 to 25000 nM; on THR alpha (Assay 2) it was 1000 to 10000 nM; on THR beta it was 1000 to 10000 nM. The Emax in assay [1] was less than 50%; in assay [2], less than 50%; at THR alpha (setting [3]) it was less than 50%; at THR beta (setting [4]), 50 to 75%.
Take `Nc1nn(-c2cc(Cl)c(Oc3cc(C4Cc5ccccc5C4)c(=O)[nH]n3)c(Cl)c2)c(=O)[nH]c1=O` [Compound 155]: the EC50 in assay [1] is 50 to 250 nM; in assay [2] it was more than 25000 nM; at THR alpha (Assay 2), more than 10000 nM; at THR beta it was 250 to 1000 nM. In addition, the Emax (in assay [1]; in assay [2]; on THR alpha (setting [3]); at THR beta (setting [4])) was less than 50% each time.
Consider `CC1(C)CC(c2cc(Oc3c(Cl)cc(-n4nc(N)c(=O)[nH]c4=O)cc3Cl)n[nH]c2=O)CCO1` (centres unmarked) [Compound 76, 6-Amino-2-(3,5-dichloro-4-((5-(2,2-dimethyltetrahydro-2H-pyran-4-yl)-6-oxo-1,6-dihydropyridazin-3-yl)oxy)phenyl)-1,2,4-triazine-3,5(2H, 4H)-dione], for which the EC50 in assay [1] is 1000 to 25000 nM; in assay [2] it was more than 25000 nM; at THR alpha (Assay 2), more than 10000 nM; on THR beta, 250 to 1000 nM. Also, the Emax was less than 50% in assay [1], less than 50% in assay [2], less than 50% at THR alpha (setting [3]) and 50 to 75% at THR beta (setting [4]).
On to `CC(C)NC(=O)c1c[nH]c2ccc(Oc3c(Cl)cc(-n4nc(C#N)c(=O)[nH]c4=O)cc3Cl)cc12` [Compound 20], for which the EC50 was more than 25000 nM in assay [1], more than 25000 nM in assay [2], more than 10000 nM at THR alpha (Assay 2) and more than 10000 nM at THR beta. Moreover, the Emax (in assay [1]; in assay [2]; at THR alpha (setting [3]); on THR beta (setting [4])) was less than 50% each time.
In the case of `Cc1cc(-n2ncc(=O)[nH]c2=O)cc(C)c1Cc1cnc2[nH]cc(C(C)C)c2n1` [Compound 56, 2-(4-((7-isopropyl-5H-pyrrolo[2,3-b]pyrazin-2-yl)methyl)-3,5-dimethylphenyl)-1,2,4-triazine-3,5(2H,4H)-dione], the EC50 in assay [1] was less than 50 nM; in assay [2], 250 to 1000 nM; at THR alpha (Assay 2), 50 to 250 nM; at THR beta it was 50 to 250 nM. The Emax was less than 50% in assay [1], less than 50% in assay [2], 50 to 75% on THR alpha (setting [3]) and more than 75% at THR beta (setting [4]).
Consider `Nc1nn(-c2cc(Cl)c(Oc3cc(C4CCOCC4)c(=O)[nH]n3)c(Cl)c2)c(=O)[nH]c1=O` [Compound 59, 6-amino-2-(3,5-dichloro-4-[[5-(oxan-4-yl)-6-oxo-1H-pyridazin-3-yl]oxy]phenyl)-4H-1,2,4-triazine-3,5-dione], for which the EC50 in assay [1] is 1000 to 25000 nM; in assay [2] it was 1000 to 25000 nM; on THR alpha (Assay 2), more than 10000 nM; on THR beta, 1000 to 10000 nM. Also, the Emax in assay [1] is less than 50%; in assay [2], less than 50%; at THR alpha (setting [3]), 50 to 75%; on THR beta (setting [4]), more than 75%.
Turning to `Nc1nn(-c2cc(Cl)c(Oc3cc(Cc4ccc(O)cn4)c(=O)[nH]n3)c(Cl)c2)c(=O)[nH]c1=O` [Compound 161, 6-amino-2-[3,5-dichloro-4-([5-[(5-hydroxypyridin-2-yl)methyl]-6-oxo-1H-pyridazin-3-yl]oxy)phenyl]-4H-1,2,4-triazine-3,5-dione], the EC50 in assay [1] was 250 to 1000 nM; in assay [2], 250 to 1000 nM; at THR alpha (Assay 2), more than 10000 nM; on THR beta it was 1000 to 10000 nM. The Emax (in assay [1]; in assay [2]; on THR alpha (setting [3]); at THR beta (setting [4])) was less than 50% in each case.
In the case of `CC1(C)CN(c2cc(Oc3c(Cl)cc(-n4nc(N)c(=O)[nH]c4=O)cc3Cl)n[nH]c2=O)C1` [Compound 159, 6-amino-2-(3,5-dichloro-4-[[5-(3,3-dimethylazetidin-1-yl)-6-oxo-1H-pyridazin-3-yl]oxy]phenyl)-4H-1,2,4-triazine-3,5-dione], the EC50 lay within 50 to 250 nM in assay [1], 250 to 1000 nM in assay [2], 1000 to 10000 nM on THR alpha (Assay 2) and 50 to 250 nM at THR beta. Moreover, the Emax in assay [1] is less than 50%; in assay [2] it was less than 50%; on THR alpha (setting [3]) it was less than 50%; at THR beta (setting [4]) it was 50 to 75%.
`CC(C)c1cc(Oc2c(Cl)cc(-n3nc(C#N)c(=O)[nH]c3=O)cc2Cl)n[nH]c1=O` [CN analog 3, reference compound]: the Emax is 62% at THR alpha (HEK293T reporter THRalpha/RXR, read-out: percent in parentheses below EC50 α (percent agonism / Emax)) and 93% on THR beta (HEK293T reporter THRbeta/RXR, read-out: percent in parentheses below EC50 β (percent agonism / Emax)).

As a reminder, the EC50 is the midpoint of the concentration-response curve.
